Data on 1 molecule can be found in patent US20020187484A1, “Molecular break lights probes for detecting nucleotide cleavage” (priority 2000, published 2002).

Holding throughout (type): biochemical
Experiment [1] concerns supercoiled pBlusecript plasmid DNA. Put plainly: Calicheamicin-induced cleavage of supercoiled plasmid DNA, protection by CalC (agarose gel). On the procedure:
Prevention of cleavage by calicheamicin—protection by CalC was assessed. […] To test this theory, preliminary assays were performed with supercoiled pBlusecript plasmid DNA (“pBS”) as the template, and dithiothreitol (“DTT”) as the reductive initiator. […] Then 2.5 μL 10 mM DTT stock solution was added to the assay solution, and the assay was incubated an additional 1 hour at 37° C. DNA fragmentation was assessed by electrophoresis on a 1% agarose gel stained with ethidium bromide.
To test this theory, assays were performed with supercoiled pblusecript plasmid DNA (“pBS”) as the template, and dithiothreitol (“DTT”) as the reductive initiator. […] 2.5 μL 10 mM DTT stock solution was added to the assay solution, and the assay was incubated an additional 1 hour at 37° C.
DNA fragmentation was assessed by electrophoresis on a 1% agarose gel stained with ethidium bromide.

A further experiment deals with break light A. The experiment is described as follows: Molecular break light assay: cleavage of break light A by enediynes and Fe^+2-dependent agents. On the procedure: Samples were analyzed with a FluoroMax-2 spectrofluorometer equipped with DataMax for Windows (Instruments S. A., Inc.; Edison, N.J.) and the temperature controlled (30° C., unless otherwise noted) by a Haake Circulator DC10. All samples were filtered prior to analysis and analyzed via a timebase scan (λex=485 nm, λEm=517 nm) in a Suprasil quartz cuvette (10 mm path) fitted with a magnetic stirring bar in a total volume of 2 mL. […] Total cleavage of the labeled oligonucleotide, confirmed by polyacrylamide gel electrophoresis (PAGE), was defined as the maximum fluorescence emission possible under saturated cleaving conditions. Emission units were converted to the amount of labeled oligonucleotide used within a procedure, thereby equating labeled oligonucleotide degradation as a function of the emission of fluorescence.
Enediyne antibiotics calicheamicin and esperamicin at varying concentrations (0.31, 0.78, 1.6, 3.2, 15.9, and 31.7 nM) were incubated in 40 mM Tris-HCl (pH 7.5) with 3.2 nM of the calicheamicin-specific labeled molecular break light oligonucleotide (A). DNA cleavage was initiated with the addition of 1 μL 100 mM dithiothreitol (“DTT”) to produce a final concentration of 50 μM DTT, and the reaction was monitored over 10 minutes via spectrofluorometry.
Pseudo-first order kinetic parameters were utilized to determine the initial velocities at each given enediyne concentration. Specifically, graphical representation of the data was based upon equation 2 where [A]t is the concentration of cleaved oligonucleotide at a given time (t) and [A]0 is the initial concentration of oligonucleotide in the assay. Least squares analysis gave the slope (k), or rate, which was converted to V by the relationship in equation 3. The maximum velocity achieved (Vmax) was then selected from the range of concentrations examined.
ln[A]t=−kt+ln[A]0 [Equation 2]
Bleomycin, an Fe^+2-dependent nucleic acid cleavage agent, is a natural metabolite from Streptomyces verticillus. Blenoxane (a mixture containing approximately 70% bleomycin A2 and 30% bleomycin B2) was dissolved in water & optically standardized (ε291=1.7×10^4M^−1 cm^−1). Bleomycin mediated cleavage was adapted from procedures outlined by Giloni et al. J. Biol. Chem. 256: 8608-8615 (1981). Several different concentrations of bleomycin (200 nM, 100 nM, 50 nM, 25 nM, 12.5 nM, 5 nM, and 2.5 nM) were incubated in 50 mM sodium phosphate, 2.5 mM ascorbate, at pH 7.5 and 37° C. with 3.2 nM of the molecular break light A.
The reaction was initiated by the addition of 65 mM Fe(II) and monitored over 5 minutes. This protocol was repeated with the addition of 5 mM sodium ascorbate to the above conditions. Pseudo-first order kinetic parameters were utilized to determine the initial velocities at each given bleomycin concentration as previously described.
In a first assay, 3.2 nM break light A was incubated in 40 mM Tris HCl and 2.5 mM ascorbate at 37° C. and pH 7.5. Cleavage was initiated by addition of MPE/Fe(II) in a 1.2:1 molar ratio to various concentrations. Final Fe(II) concentrations were 8 μM, 4 μM, 2 μM, 1 μM, 500 nM, 250 nM, and 125 nM.
In a second assay, 32 nM molecular break light A was incubated in 40 mM Tris and 2.5 mM sodium ascorbate at pH 7.5 and 37° C. Cleavage was initiated by addition of MPE/Fe(II) in a 1.2:1 molar ratio to various concentrations. Final Fe(II) concentrations were 50 nM, 125 nM, 250 nM, 500 nM, 1 μM, and 2 μM.
In a third assay, 32 nM break light A (calicheamicin-specific molecular break light oligonucleotide) was incubated in 40 mM Tris and 2.5 mM sodium ascorbate at pH 7.5 and 37° C.

The next experiment relates to break light B. The experiment is described as follows: Calicheamicin cleavage of break light B. The settings on record: calicheamicin with DTT.

Marks after values point to notes of the source that are not given here.

For the molecule `CCN[C@H]1CO[C@@H](O[C@H]2[C@H](O[C@H]3C#C/C=C/C#C[C@@]4(O)CC(=O)C(NC(=O)OC)=C3/C4=C\CSSSC)O[C@H](C)[C@@H](NO[C@H]3C[C@H](O)[C@H](SC(=O)c4c(C)c(I)c(O[C@@H]5O[C@@H](C)[C@H](O)[C@@H](OC)[C@H]5O)c(OC)c4OC)[C@@H](C)O3)[C@@H]2O)C[C@@H]1OC` [Calicheamicinγ1^l, calicheamicin γ1^I], the DNA cleavage result in experiment [1] (calicheamicin in the absence of DTT (lane a)) is reported as “no DNA cleavage”; in experiment [1] (presence of DTT and calicheamicin (lane c)), “efficient cleavage”. Besides, the “detection of agent by the assay (sensitivity range)” value with break light A (3.2 nM break light A, conditions described) is reported as “pM range”. In the experiment on break light A (3.2 nM break light A, excess DTT), the “maximum fluorescence upon cleavage, compared with DNaseI” value is “identical to that observed with DNaseI”. Also, in the experiment on break light A ([DNA]total = 3.2 nM), the “Turnover (Vmax/[Agent])” value was 0.007 s⁻¹. Besides, the Vmax with break light A ([DNA]total = 3.2 nM, 37° C.) is 0.011 ± 0.002^d nM sec^−1. In addition, in the experiment on break light A ([DNA]total = 3.2 nM, MPE as common agent), the “Comparison to EDTA (fold enhancement over EDTA turnover)” value was 4.8 × 10^5 fold. Besides, in the experiment on break light A (from Table 1), the “enhancement of cleavage efficiency over bleomycin” value is recorded as approximately 10 fold. In addition, the “rate of cleavage of break light B compared with break light A” value in the experiment with break light B is reported as “rate identical to that of break light A”.
